Three compounds from patent US20140302217A1, “PRESERVATIVE COMBINATIONS COMPRISING PROPIONIC ACID AND VANILLIN AND/OR CINNAMIC ACID” (Purac Biochem B.V., priority 2011, published 2014) can be followed below.

The test system of assay [1] is mould cocktail. Put plainly: combinations of components in model drink in 96-well microtiter plates, visual observation of growth. Particulars: 3 weeks at 20°. It counts as cell-based, Fusarium oxisporum, Byssoaclamys fulva, Penicillium sp. The protocol:
The tests where two components or more components were combined in model drink were carried out in sterile 96-well microtiter plates. Sterile matrix was prepared according recipe of Nestle with increasing quantities of two different inhibitors. The concentrations of each inhibitor were presented in 8 equal concentration steps that ranged from 0 to 1-2 times the (estimated) MIC value of particular mould for a particular inhibitor resulting in 64 different media. 200 μl of each medium was transferred to a panel of a sterile 96-well microtiter plate.
Completed well plates were stored at 4° C. until further use. The data was obtained via optical observation of growth.
Spores of all moulds were collected via the method as described in 2.3. Spores were counted using the Burker-turk method and adjusted to a log 5 per ml in PFZ and mixed to a homologue suspension. This suspension was diluted 100 times for inoculation.
In order to have an idea of the efficacy of the combination of propionate, vanillin and potassium cinnamate in model drink, some experiments were done in microwells plates. These experiments were visually observed after 3 weeks of incubation at 20° and used as pre-application experiments in order to create an expectation for the efficacy of the components in long term application experiments. The data that is shown in table 5 below is divided in “+” and “−”. The “+” means visible growth, while the “−” means no visible growth of the mould cocktail at the specific concentrations. […] However, combined with an amount of nearly 400 ppm of propionate and 75 ppm of vanillin the model drink is stable for at least 3 weeks.

Assay [2] relates to Penicillium sp (Pen381). Put plainly: MEA agar plate colony growth test. The assay is classed as cell-based. The note with it: single component, agar plates. How it is done: (§1) Each experiment existed of 10 MEA agar plates containing a successive amount of component, starting from 0 ppm to the maximal used concentration.
(§2) MEA was prepared by dissolving 20 g of Malt extract (Difco, England), 1 g of Peptone (Becton Dickinson, USA), 20 g of glucose and 20 g of bacteriological agar (No. 1. Oxoid, England) in 11 of dematerialized water. The pH was adjusted to 3.2 by adding 5.9 ml of Hcl 1M after heat sterilization.
(§3) A stock solution was made for each component. The stock was 25 times the maximal used concentration. A successive amount from 0 to 900 μl of these stocks, making the concentration range, was pipetted in 10, 50 ml capped test tubes.
(§4) Subsequently, 25 ml of warm (80-90° C.) MEA agar was pipetted, using a sterile 25 ml pipette, in the tubes and the tubes were vortexed slowly but vigorously. Next, the component containing agar was poured out in 9 cm Petri dishes. Besides single components against single moulds, combinations of propionate with potassium cinnamate or vanillin were tested on solid agar. To prepare these binary combinations 6.25 ml of a 4 times concentrated component was mixed with the other components that was also 4 times concentrated. The mix of components were mixed with 12.5 ml double concentrated MEA to reach the preferred concentrations.
(§5) After the plates were dried a dot was spotted at the backside and in the centre of the petridish 0.5 μl of the mould spore solution was spotted on the agar targeting the dot in the centre. When the drop was dried in, the plates were placed bottom down in the incubator at 25° C.
(§6) The growth of colonies was determined by measurement of the colony diameter at different points in time. The growth curves were converted to dose response curves as described in 2.6.
(§7) The data from the agar plate experiments were obtained by measuring the colony size changes. The change in time was interpreted as growth speed and growth curves were plotted.
(§8) To convert the growth curves to dose response curves the μ Max (maximum growth rate) was calculated per concentration of antimicrobial component. The curves were fitted to a Logistic Dose Response (LDR) Intercept Form (Equation 8013) using Table curve 2D version 5.1

For assay [3], the system named is pure cultures of moulds. The assay is described as follows: single components and binary combinations on MEA agar plates against pure cultures of moulds (colony diameter). It counts as cell-based, Fusarium oxisporum, Byssoaclamys fulva, Penicillium sp. The protocol:
as §1, §2, §3, §4, §5, §6, §7
To convert the growth curves to dose response curves the μ Max (maximum growth rate) was calculated per concentration of antimicrobial component. […]

Assay [4] concerns Byssoaclamys fulva (Bysful2). Put plainly: MEA agar plate colony growth test. It counts as cell-based. The note with it: single component, agar plates. The protocol: as §1, §2, §3, §4, §5, §6, §7, §8

Molecules are shown by their SMILES.

Regarding `O=C([O-])C=Cc1ccccc1.[K+]` [potassium cinnamate], the “inhibition of the growth of the mould cocktail” value in assay [1] (350 ppm alone) is listed as “not sufficient”. In addition, the “visible growth of mould cocktail” value in assay [1] (Kcinnamate 0.0050% (w/v)), in assay [1] (Kcinnamate 0.0100% (w/v)), in assay [1] (Kcinnamate 0.0150% (w/v)), in assay [1] (Kcinnamate 0.0200% (w/v)), in assay [1] (Kcinnamate 0.0250% (w/v)) and in assay [1] (Kcinnamate 0.0300% (w/v)) was “+” throughout. For the same compound, in assay [1] (Kcinnamate 0.0350% (w/v)), the “visible growth of mould cocktail” value was “+”. For the same compound, in assay [2] (after 100 ppm), the “growth of Penicillium” value is given as “dramatic increase”. Besides, the “inhibition of Penicillium” value in assay [2] (levels up to 200 ppm) is “not inhibited”.
With `CCC(=O)O` [propionate, Propionic acid], the “sensitivity of all moulds to the component” value in assay [3] is recorded as “sensitive”. Besides, the “concentration at which Penicillium is inhibited” value in assay [2] is “approximately 0.15%”. Further, the “concentration at which Byssoclamys is inhibited” value in assay [4] is “approximately 0.15%”.
As for `COc1cc(C=O)ccc1O` [vanillin, 4-Hydroxy-3-methoxybenzaldehyde], the “sensitivity of all moulds to the component” value in assay [3] was “sensitive”. Moreover, in assay [3] (single component, also printed as 900 ppm), the “amount needed for an overall inhibition of all moulds” value is on record as “approximately 0.09%”.
